According to US20080208179A1, “METHODS OF INCREASING SKIN PERMEABILITY BY TREATMENT WITH ELECTROMAGNETIC RADIATION” (Reliant Technologies, Inc., priority 2006, published 2008):

Legend:
Format in all cases: in vitro ADME
[1] = In vitro permeation of 5-Fluorouracil through fractional laser treated ex vivo human skin (Example 8)
Procedure: In vitro permeation studies were performed on untreated and treated ex vivo human skin to determine if treatment of the skin with fractional laser radiation increased skin permeability to a 0.5% (w/v) 5-Fluorourocil solution. The treatment was conducted using the methods outlined in Examples 6 and 7 using a Fraxel Re:store™ laser system (Reliant Technologies, Mountain View, Calif., USA). The treatment parameters used included a laser pulse energy of 10 mJ, a 60 μm incident optical spot size, and a final spot density of 2000 MTZ/cm^2. The skin graft thickness used was 500 μm. The experiment consisted of a total of 6 individual runs (n=6). The uptake study was conducted using an infinite dose regimen.
The total uptake was taken as the sum of the permeated and retained 5-Fluorouracil. The permeation values were calculated at each time point and plotted as a cumulative value in FIG. 16. Over the course of the study (24 hours), the uptake of 5-Fluorouracil from the untreated skin (control) remained below 0.2 mg/cm^2, while the uptake of 5-Fluorouracil from the laser treated skin approached 1.4 mg/cm^2 after 24 hours.

[2] = In vitro permeation of ascorbic acid through fractional laser treated ex vivo human skin (Example 6, 60 μm treatment zone size); settings: for Retention Ratio / Total Uptake Ratio: delivery mode not given; for Cumulative permeation / Enhancement ratio (total uptake by treatment/total uptake in control) / Retention / Total uptake: 90 min
Procedure: In vitro permeation studies were performed on untreated and treated human skin to determine if treatment of the skin with fractional laser radiation increased skin permeability to ascorbic acid. The treatment consisted of exposing the skin in vitro to fractional laser radiation. This study also evaluated the effect of using the laser radiation using the contact delivery mode and the non-contact delivery mode.
Ex vivo skin: All ex vivo laser treatments were performed using a 1550 nm laser system on freshly excised human abdominal skin (Fitzpatrick skin type II).
Laser parameters: Arrays of single mode Gaussian beams of 60 μm 1/e^2 diameter at incidence were delivered to the surface of the skin specimen in each treatment, using contact and non-contact tips. For the contact delivery mode, the laser radiation was delivered through a sapphire window in a contact tip which abutted the specimen. For the non-contact delivery mode, the laser radiation was delivered through a contact tip without the sapphire window; thus, the laser incidence occurred at the air-tissue interface. The laser pulse energies tested for ascorbic acid uptake measurements were 10 and 20 mJ. […]
Ascorbic acid formulation: Topical vitamin C solution contained L-ascorbic acid 15% (VWR International, West Chester, Pa.), ferulic acid 0.5%, and vitamin E 1% buffered to a pH of 3.2±0.2 with triethanolamine (Lin et al, 2005). Ascorbic acid was freshly prepared avoiding light exposure just prior to each experiment.
(§1) Ascorbic acid permeation studies: The uptake studies were carried out using skin permeation systems (LGA, Inc., Berkeley, Calif.) and 500 μm thick skin grafts from freshly excised human abdominal skin. Non-laser treated skin was used as a control. Immediately after laser treatment, each skin sample was mounted on a permeation system whose donor compartment was then filled with ascorbic acid solution (Lee et al, 2003). The entire arrangement was incubated to simulate body temperature. Aliquots were drawn at 5, 10, 15, 30, 60, and 90 min, and quantitatively analyzed for permeated ascorbic acid using high performance liquid chromatography (HPLC). After 90 min, each skin sample was washed thoroughly in saline, weighed, homogenized and centrifuged (Lee et al, 2003). This was followed by HPLC analysis to determine the retained ascorbic acid value. The measured retention was then normalized to the effective area of skin sample through which permeation occurred. Each experiment constituted a total of 5 individual runs (n=5).
(§2) Data analysis: The total uptake was taken as the sum of the permeated and retained ascorbic acid. The permeation values were calculated at each time point and plotted as a cumulative value. The uptake enhancement ratio represents the total ascorbic acid uptake for laser treated skin divided by the total uptake for untreated skin at 90 min.

[3] = In vitro permeation of ascorbic acid through fractional laser treated ex vivo human skin (Example 7, 85 μm spot size); settings: for Cumulative permeation / Enhancement ratio (total uptake in treated sample/total uptake in control) / Retention / Total uptake: 90 min; for Normalized cumulative permeation at 10 mJ @ 2000 MTZ/cm2 relative to 20 mJ @ 1000 MTZ/cm2: by 90 min
Procedure: In vitro permeation studies were performed on untreated and treated human skin to determine if treatment of the skin with fractional laser radiation increased skin permeability to ascorbic acid.
A modified 1550 nm Fraxel® SR laser system was operated as previously described by Bedi et al., Lasers Surg Med, 2007 February; 39(2):145-55. Arrays of single mode Gaussian beams of 85 μm 1/e^2 diameter at incidence were delivered to the surface of the skin specimen in each treatment, using contact and non-contact tips. The contact tip abutted the specimen through a sapphire window through which the laser beam was irradiated. The non-contact tip omitted the sapphire window; thus, the laser incidence occurred at the air-tissue interface. The laser pulse energies tested for ascorbic acid uptake measurements were 10 and 20 mJ. For each 10 mJ treatment, 8 passes at 250 microscopic treatment zones (MTZs) per cm^2 were made at a constant velocity of 1.0 cm per second producing a final spot density of 2000 MTZs per cm^2; for each 20 mJ treatment, 4 passes at 250 microscopic treatment zones (MTZs) per cm^2 were made at a constant velocity of 1.0 cm per second producing a final spot density of 1000 MTZs per cm^2. These pulse energy and spot density combination parameters are similar to those used in a typical clinical NFR™ treatment session. Histologic examination was performed for pulse energies ranging from 6 to 40 mJ at a fixed spot size of 85 μm. The pulse durations ranged from 0.24 to 1.6 msec per pulse.
Topical vitamin C solution contained L-ascorbic acid 15% (VWR International, West Chester, Pa.), ferulic acid 0.5%, and vitamin E 1% buffered to a pH of 3.2±0.2 with triethanolamine (Lin et al, 2005). Ascorbic acid was freshly prepared avoiding light exposure just prior to each experiment.
as §1, with “The uptake” for “Ascorbic acid permeation studies: The uptake”, “and 90 min from the diffusion chamber, and quantitatively” for “and 90 min, and quantitatively”
as §2, with “The” for “Data analysis: The”, “acid over the cross-sectional area of the skin through which uptake occurred.” for “acid.”

[4] = 10 mJ, 60 μm spot size, 2000 MTZ/cm2, 0.5% (w/v) solution, n=6
[5] = 20 mJ, 1000 TZ/cm2, contact mode
[6] = 20 mJ, 1000 TZ/cm2, non-contact mode
[7] = 1550 nm, 60 μm, 20 mJ, contact mode, 1000 TZ/cm2
[8] = 1550 nm, 60 μm, 20 mJ, non-contact mode, 1000 TZ/cm2
[9] = control, non-laser treated skin
[10] = skin group not stated (sentence follows the control value)
[11] = 1550 nm, 85 μm, 10 mJ, contact mode, 2000 MTZ/cm2
[12] = 1550 nm, 85 μm, 20 mJ, contact mode, 1000 MTZ/cm2
[13] = 1550 nm, 85 μm, 20 mJ, non-contact mode, 1000 MTZ/cm2
[14] = 1550 nm, 85 μm, non-contact mode, pulse energy 20 mJ, text b229 prints 10 mJ @ 2000 MTZ/cm2

## O=c1[nH]cc(F)c(=O)[nH]1 [5-Fluorouracil]
[1]; [4]
  Permeation, Ratio ± Standard Deviation: 37.7 ± 10.6
  Retention, Ratio ± Standard Deviation: 2.4 ± 0.8
  Uptake, Ratio ± Standard Deviation: 20.3 ± 5.3
[1]; laser treated skin, 10 mJ, 60 μm, 2000 MTZ/cm2, after 24 hours
  Uptake: ~1.4 mg/cm^2
[1]; untreated skin (control), over 24 hours
  Uptake: below 0.2 mg/cm^2

## O=C1O[C@H]([C@@H](O)CO)C(O)=C1O [ascorbic acid, L-ascorbic acid]
[2]; 10 mJ, 1000 TZ/cm2
  Retention Ratio: 1.8
  Total Uptake Ratio: 2.9
[2]; 10 mJ, 2000 TZ/cm2
  Retention Ratio: 2.0
  Total Uptake Ratio: 4.2
[2]; 20 mJ, 500 TZ/cm2
  Retention Ratio: 1.3
  Total Uptake Ratio: 7.0
[2]; [5]
  Retention Ratio (retained by treated skin / retained by control skin): 2.1
  Total Uptake Ratio (treated skin / control skin): 5.3
[2]; [6]
  Retention Ratio (retained by treated skin / retained by control skin): 3.8
  Total Uptake Ratio (treated skin / control skin): 9.6
[2]; 20 mJ, 1000 TZ/cm2
  Retention Ratio: 3.8
  Total Uptake Ratio: 9.6
[2]; 20 mJ, FIG. 12
  Cumulative permeation over time, non-contact mode compared with contact mode: higher permeation levels
[2]; [7]
  Cumulative permeation: 0.20 ± 0.03 mg
  Enhancement ratio (total uptake by treatment/total uptake in control): 5.3
  Retention: 0.13 ± 0.01 mg
  Total uptake: 0.42 ± 0.06 mg/cm2
[2]; [8]
  Cumulative permeation: 0.37 ± 0.14 mg
  Enhancement ratio (total uptake by treatment/total uptake in control): 9.6
  Retention: 0.24 ± 0.03 mg
  Total uptake: 0.77 ± 0.18 mg/cm2
[2]; [9]
  Cumulative permeation: below
  Retention: 0.06 ± 0.01 mg
  Total uptake: 0.08 ± 0.01 mg/cm2
[2]; [10]
  Share of the total uptake contributed by permeation: ~70%
  Share of the total uptake contributed by retention: Approximately 30%
[3]; 10 mJ @ 2000 MTZ/cm2
  Improvement of uptake in non-contact mode over contact mode at identical laser parameters: ~4 ×
[3]; 20 mJ @ 1000 MTZ/cm2
  Improvement of uptake in non-contact mode over contact mode at identical laser parameters: ~3 ×
[3]; [11]
  Cumulative permeation: 0.49 ± 0.07 mg
  Enhancement ratio (total uptake in treated sample/total uptake in control): 6.6
  Retention: 0.22 ± 0.02 mg
  Total uptake: 0.90±0.07 mg/cm2
[3]; [12]
  Cumulative permeation: 0.27 ± 0.10 mg
  Enhancement ratio (total uptake in treated sample/total uptake in control): 3.6
  Retention: 0.12 ± 0.02 mg
  Total uptake: 0.49±0.14 mg/cm2
[3]; [13]
  Cumulative permeation: 0.90 ± 0.27 mg
  Enhancement ratio (total uptake in treated sample/total uptake in control): 10.3
  Retention: 0.19 ± 0.02 mg
  Total uptake: 1.40±0.31 mg/cm2
[3]; 1550 nm, 85 μm, non-contact mode, pulse energy 20 mJ, text b227 prints 10 mJ @ 2000 MTZ/cm2
  Cumulative permeation: 2.41 ± 0.44 mg
[3]; 1550 nm, 85 μm, non-contact mode, pulse energy 20 mJ, text b228 prints 10 mJ @ 2000 MTZ/cm2
  Retention: 0.40 ± 0.09 mg
[3]; [14]
  Enhancement ratio (total uptake in treated sample/total uptake in control): 26.3
  Total uptake: 3.58±0.54 mg/cm2
[3]; all conditions of laser treatment tested
  Permeation into the diffusion chamber: observed to permeate into the diffusion chamber
[3]; contact mode
  Normalized cumulative permeation at 10 mJ @ 2000 MTZ/cm2 relative to 20 mJ @ 1000 MTZ/cm2: approximately 2 ×
[3]; contact or non-contact, regardless of pulse energy (10 mJ or 20 mJ)
  Total uptake at 2000 MTZ/cm2 relative to 1000 MTZ/cm2 within the respective treatment mode: approximately two or more times
[3]; [9]
  Retention: 0.11 ± 0.01 mg
  Total uptake: 0.14±0.01 mg/cm2
[3]; non-contact mode
  Normalized cumulative permeation at 10 mJ @ 2000 MTZ/cm2 relative to 20 mJ @ 1000 MTZ/cm2: more than twice
[3]; non-irradiated ex vivo skin, up to 90 min after application
  Permeation measured by HPLC: no permeation
[3]; skin treated at pulse energies of 10 mJ and 20 mJ, contact mode, FIG. 13
  Time until permeation was demonstrated: ≤ 5 min
